Assay results as given in PubChem BioAssay AID306 (DTP/NCI, 2004).
Several values for one entry are separate records, joined by “and”; a condition that tells them apart may be missing. Equal entries are not always repeated. Inconclusive results and toxic doses are left out.

System: BDF1 mice, L1210 Methyl-GAG-resistant leukemia, survival T/C
Assay: NCI In Vivo Anticancer Drug Screen. Data for tumor model L1210 Leukemia resistant to Methyl-GAG; NSC 32946 (subcutaneous) in B6D2F1 (BDF1) mice
Details: endpoint: mean survival time, higher = longer survival
Experimental: The antitumor activity of compounds was measured in mice bearing transplantable tumors. Survival or tumor size were measured and the results are expressed as the measurement made in the treated group (T) divided by the measurement made in the vehicle treated control group (C). The tumor model used in this assay is L1210 Leukemia resistant to Methyl-GAG; NSC 32946 (subcutaneous) in B6D2F1 (BDF1) mice

[1] = dose: 25.0 mg/kg/injection, schedule: Q01DX Z (ip), vehicle: carboxymethylcellulose (CMC)
[2] = dose: 50.0 mg/kg/injection, schedule: Q01DX Z (ip), vehicle: carboxymethylcellulose (CMC)
[3] = dose: 100.0 mg/kg/injection, schedule: Q01DX Z (ip), vehicle: carboxymethylcellulose (CMC)
[4] = dose: 200.0 mg/kg/injection, schedule: Q01DX Z (ip), vehicle: carboxymethylcellulose (CMC)
[5] = dose: 500.0 mg/kg/injection, schedule: Q01DX Z (ip), vehicle: carboxymethylcellulose (CMC)
[6] = dose: 12.5 mg/kg/injection, schedule: Q01DX Z (ip), vehicle: carboxymethylcellulose (CMC)
[7] = dose: 63.0 micrograms/kg/injection, schedule: Q01DX Z (ip), vehicle: carboxymethylcellulose (CMC)
[8] = dose: 125.0 micrograms/kg/injection, schedule: Q01DX Z (ip), vehicle: carboxymethylcellulose (CMC)
[9] = dose: 62.5 mg/kg/injection, schedule: Q01DX Z (ip), vehicle: carboxymethylcellulose (CMC)
[10] = dose: 125.0 mg/kg/injection, schedule: Q01DX Z (ip), vehicle: carboxymethylcellulose (CMC)
[11] = dose: 250.0 mg/kg/injection, schedule: Q01DX Z (ip), vehicle: carboxymethylcellulose (CMC)
[12] = dose: 1000.0 mg/kg/injection, schedule: Q01DX Z (ip), vehicle: carboxymethylcellulose (CMC)
[13] = dose: 0.5 mg/kg/injection, schedule: Q01DX Z (ip), vehicle: saline
[14] = dose: 1.0 mg/kg/injection, schedule: Q01DX Z (ip), vehicle: saline
[15] = dose: 6.25 mg/kg/injection, schedule: Q01DX Z (ip), vehicle: carboxymethylcellulose (CMC)

In the case of `O=C1C(NC(=O)C2CCCCC2)=C(N2CC2)C(=O)C(NC(=O)C2CCCCC2)=C1N1CC1`, the T/C [1] is reported as 100 % of control, the T/C [2] is reported as 96 % of control and the T/C [3] is reported as 114 % of control. For the same molecule, the T/C [4] was 108 % of control and 118 % of control, the T/C (dose: 400.0 mg/kg/injection, schedule: Q01DX Z (ip), vehicle: carboxymethylcellulose (CMC)) was 120 % of control and the T/C (dose: 800.0 mg/kg/injection, schedule: Q01DX Z (ip), vehicle: carboxymethylcellulose (CMC)) was 104 % of control.

With `OCC1OC(n2cnc3c(=S)nc[nH]c32)C(O)C1O` (stereo unspecified) the T/C (dose: 2.0 mg/kg/injection, schedule: Q01DX Z (ip), vehicle: carboxymethylcellulose (CMC)) was 100 % of control, the T/C (dose: 4.0 mg/kg/injection, schedule: Q01DX Z (ip), vehicle: carboxymethylcellulose (CMC)) was 100 % of control and the T/C (dose: 8.0 mg/kg/injection, schedule: Q01DX Z (ip), vehicle: carboxymethylcellulose (CMC)) was 107 % of control. The T/C (dose: 16.0 mg/kg/injection, schedule: Q01DX Z (ip), vehicle: carboxymethylcellulose (CMC)) was 115 % of control, the T/C (dose: 31.0 mg/kg/injection, schedule: Q01DX Z (ip), vehicle: carboxymethylcellulose (CMC)) was 120 % of control and the T/C [5] was 93 % of control.

With `C[C@H]1C(=O)O[C@@H]2CCN3CC=C(COC(=O)[C@](C)(O)[C@@]1(C)O)[C@H]23` the T/C (dose: 1.88 mg/kg/injection, schedule: Q01DX Z (ip), vehicle: carboxymethylcellulose (CMC)) was 94 % of control, the T/C (dose: 3.75 mg/kg/injection, schedule: Q01DX Z (ip), vehicle: carboxymethylcellulose (CMC)) was 96 % of control and the T/C (dose: 7.5 mg/kg/injection, schedule: Q01DX Z (ip), vehicle: carboxymethylcellulose (CMC)) was 92 % of control. For the same molecule, the T/C (dose: 15.0 mg/kg/injection, schedule: Q01DX Z (ip), vehicle: carboxymethylcellulose (CMC)) was 92 % of control and 99 % of control, the T/C (dose: 30.0 mg/kg/injection, schedule: Q01DX Z (ip), vehicle: carboxymethylcellulose (CMC)) was 105 % of control and the T/C (dose: 60.0 mg/kg/injection, schedule: Q01DX Z (ip), vehicle: carboxymethylcellulose (CMC)) was 106 % of control. For the same molecule, the T/C (dose: 120.0 mg/kg/injection, schedule: Q01DX Z (ip), vehicle: carboxymethylcellulose (CMC)) was 113 % of control.

For `CSc1ncnc2nc[nH]c12`, the T/C [6] was 106 % of control, the T/C [1] was 111 % of control and the T/C [2] was 106 % of control. For the same molecule, the T/C [3] was 115 % of control and the T/C [4] was 97 % of control.

For `C[C@@H]1C[C@@H]([C@H](O)CC2CC(=O)NC(=O)C2)C(=O)[C@@H](C)C1`, the T/C (dose: 9.4 mg/kg/injection, schedule: Q01DX Z (ip), vehicle: water) was 90 % of control, the T/C (dose: 12.5 mg/kg/injection, schedule: Q01DX Z (ip), vehicle: water) was 114 % of control and 122 % of control (2×) and the T/C (dose: 18.8 mg/kg/injection, schedule: Q01DX Z (ip), vehicle: water) was 93 % of control. For the same molecule, the T/C (dose: 25.0 mg/kg/injection, schedule: Q01DX Z (ip), vehicle: water) was 156 % of control, the T/C (dose: 37.5 mg/kg/injection, schedule: Q01DX Z (ip), vehicle: water) was 124 % of control and the T/C (dose: 50.0 mg/kg/injection, schedule: Q01DX Z (ip), vehicle: water) was 108 % of control.

For `CCCSc1ncnc2nc[nH]c12`, the T/C (dose: 6.3 mg/kg/injection, schedule: Q01DX Z (ip), vehicle: carboxymethylcellulose (CMC)) was 107 % of control, the T/C [6] was 110 % of control and the T/C [1] was 110 % of control and 118 % of control. For the same molecule, the T/C [2] was 117 % of control and 123 % of control and the T/C [3] was 110 % of control.

`Cn1cc(NC(=O)c2cc(NC(=O)CN=C(N)N)cn2C)cc1C(=O)NCCC(=N)N` was tested, and the T/C (dose: 6.3 mg/kg/injection, schedule: Q01DX Z (ip), vehicle: saline) was 112 % of control, the T/C (dose: 12.5 mg/kg/injection, schedule: Q01DX Z (ip), vehicle: saline) was 102 % of control and the T/C (dose: 25.0 mg/kg/injection, schedule: Q01DX Z (ip), vehicle: saline) was 91 % of control.

With `N#Cc1cn(C2OC(CO)C(O)C2O)c2ncnc(N)c12` (stereo unspecified) the T/C [7] was 96 % of control, the T/C [8] was 102 % of control and the T/C (dose: 250.0 micrograms/kg/injection, schedule: Q01DX Z (ip), vehicle: carboxymethylcellulose (CMC)) was 115 % of control. The T/C (dose: 500.0 micrograms/kg/injection, schedule: Q01DX Z (ip), vehicle: carboxymethylcellulose (CMC)) was 93 % of control.

`C[C@]12C=CC(=O)C=C1CC[C@@H]1[C@@H]2[C@@H](O)C[C@@]2(C)[C@H]1CC[C@]2(O)C(=O)CO` was tested, and the T/C (dose: 62.5 mg/kg/injection, schedule: Q01DX Z (sc), vehicle: steriod suspending solution) was 104 % of control, the T/C (dose: 125.0 mg/kg/injection, schedule: Q01DX Z (sc), vehicle: steriod suspending solution) was 104 % of control and 124 % of control and the T/C (dose: 250.0 mg/kg/injection, schedule: Q01DX Z (sc), vehicle: steriod suspending solution) was 94 % of control.

With `O=CN(O)CC(=O)O` the T/C [9] was 108 % of control, the T/C [10] was 101 % of control and the T/C [11] was 101 % of control. The T/C [5] was 102 % of control and 110 % of control and the T/C [12] was 105 % of control.

For `OCC1OC(n2cnc3c(Cl)ncnc32)C(O)C1O` (stereo unspecified), the T/C [9] was 96 % of control, the T/C [10] was 94 % of control and the T/C [11] was 99 % of control. The T/C [5] was 88 % of control and 102 % of control and the T/C [12] was 91 % of control.

In the case of `N=C(N)c1ccc(Nc2ccc(C(=N)N)cc2)cc1`, the T/C (dose: 3.1 mg/kg/injection, schedule: Q01DX Z (ip), vehicle: methylcellulose (MC)) is reported as 98 % of control and 102 % of control, the T/C (dose: 6.25 mg/kg/injection, schedule: Q01DX Z (ip), vehicle: methylcellulose (MC)) is reported as 107 % of control and the T/C (dose: 6.3 mg/kg/injection, schedule: Q01DX Z (ip), vehicle: methylcellulose (MC)) is reported as 93 % of control. The T/C (dose: 12.5 mg/kg/injection, schedule: Q01DX Z (ip), vehicle: methylcellulose (MC)) was 97 % of control.

In the case of `O[C@H](CN1CC1)[C@@H](O)CN1CC1`, the T/C (dose: 0.06 mg/kg/injection, schedule: Q01DX Z (ip), vehicle: carboxymethylcellulose (CMC)) is reported as 97 % of control, the T/C (dose: 0.12 mg/kg/injection, schedule: Q01DX Z (ip), vehicle: carboxymethylcellulose (CMC)) is reported as 110 % of control and the T/C (dose: 0.5 mg/kg/injection, schedule: Q01DX Z (ip), vehicle: carboxymethylcellulose (CMC)) is reported as 170 % of control and 178 % of control. For the same molecule, the T/C (dose: 1.0 mg/kg/injection, schedule: Q01DX Z (ip), vehicle: carboxymethylcellulose (CMC)) was 100 % of control, the T/C [7] was 101 % of control and the T/C [8] was 109 % of control.

`O=C(Nc1ccc(NC2=NCCN2)cc1)c1ccc(C(=O)Nc2ccc(NC3=NCCN3)cc2)cc1` was tested, and the T/C [13] was 101 % of control, the T/C [14] was 100 % of control and the T/C (dose: 2.0 mg/kg/injection, schedule: Q01DX Z (ip), vehicle: saline) was 100 % of control. For the same molecule, the T/C (dose: 8.0 mg/kg/injection, schedule: Q01DX Z (ip), vehicle: saline) was 196 % of control, the T/C (dose: 32.0 mg/kg/injection, schedule: Q01DX Z (ip), vehicle: saline) was 113 % of control and the T/C (dose: 64.0 mg/kg/injection, schedule: Q01DX Z (ip), vehicle: saline) was 95 % of control.

In the case of `CCCCn1cnc2c(=S)nc[nH]c21`, the T/C (dose: 3.1 mg/kg/injection, schedule: Q01DX Z (ip), vehicle: carboxymethylcellulose (CMC)) is reported as 91 % of control, the T/C [15] is reported as 113 % of control and the T/C [6] is reported as 97 % of control. The T/C [1] was 103 % of control.

`Nc1nc(SCc2ccccc2)c2[nH]cnc2n1` was tested, and the T/C [15] was 104 % of control and the T/C [6] was 154 % of control.

`Nc1nc2n[nH]nc2c(=O)[nH]1` was tested, and the T/C (dose: 25.0 mg/kg/injection, schedule: Q01DX Z (ip), vehicle: other) was 159 % of control, the T/C (dose: 100.0 mg/kg/injection, schedule: Q01DX Z (ip), vehicle: other) was 162 % of control and 168 % of control and the T/C (dose: 400.0 mg/kg/injection, schedule: Q01DX Z (ip), vehicle: other) was 177 % of control.

For `CSc1ncnc2c1ncn2C1OC(CO)C(O)C1O` (stereo unspecified), the T/C [15] was 102 % of control, the T/C [6] was 107 % of control and the T/C [2] was 97 % of control.

For `CSCS(=O)C[C@H](CO)NC(=O)/C=C/c1c(C)[nH]c(=O)[nH]c1=O` (stereo partly specified), the T/C (dose: 0.06 mg/kg/injection, schedule: Q01DX Z (ip), vehicle: saline) was 97 % of control, the T/C (dose: 0.12 mg/kg/injection, schedule: Q01DX Z (ip), vehicle: saline) was 97 % of control and the T/C (dose: 0.25 mg/kg/injection, schedule: Q01DX Z (ip), vehicle: saline) was 106 % of control and 113 % of control. The T/C [13] was 112 % of control and the T/C [14] was 96 % of control.

`O=c1[nH]c(=O)n(C2CC(O)C(CO)O2)cc1I` (stereo unspecified) was tested, and the T/C [9] was 118 % of control, the T/C [10] was 112 % of control and the T/C [5] was 117 % of control.
